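Five compound concentrations were applied to cells in 96-well plates for 48 hours; endpoints were derived by simple linear interpolation of the resulting dose-response curve. TGI: total growth inhibition.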
Columns and labels:
Test in all cases: DTP human tumour cell line panel, 48 h
UO-31 renal = system: UO-31 renal
SF-268 CNS = system: SF-268 CNS
HOP-62 NSCLC = system: HOP-62 NSCLC
BT-549 breast = system: BT-549 breast
HCC-2998 colon = system: HCC-2998 colon
SK-OV-3 ovarian = system: SK-OV-3 ovarian
MOLT-4 leukemia = system: MOLT-4 leukemia
ACHN renal = system: ACHN renal
RPMI-8226 leukemia = system: RPMI-8226 leukemia
TK-10 renal = system: TK-10 renal
MALME-3M melanoma = system: MALME-3M melanoma
HS 578T breast = system: HS 578T breast
HCT-116 colon = system: HCT-116 colon
MDA-MB-231 breast = system: MDA-MB-231 breast
SK-MEL-2 melanoma = system: SK-MEL-2 melanoma
SN12C renal = system: SN12C renal

| Structure (SMILES) | TGI (UO-31 renal) [µM] | TGI (SF-268 CNS) [µM] | TGI (HOP-62 NSCLC) [µM] | TGI (BT-549 breast) [µM] | TGI (HCC-2998 colon) [µM] | TGI (SK-OV-3 ovarian) [µM] | TGI (MOLT-4 leukemia) [µM] | TGI (ACHN renal) [µM] | TGI (RPMI-8226 leukemia) [µM] | TGI (TK-10 renal) [µM] | TGI (MALME-3M melanoma) [µM] | TGI (HS 578T breast) [µM] | TGI (HCT-116 colon) [µM] | TGI (MDA-MB-231 breast) [µM] | TGI (SK-MEL-2 melanoma) [µM] | TGI (SN12C renal) [µM] |
| --- | --- | --- | --- | --- | --- | --- | --- | --- | --- | --- | --- | --- | --- | --- | --- | --- |
| O=C(O)CCC(NC(=O)c1ccc(Nc2nc3ccccc3nc2C(=O)O)cc1)C(=O)O (centres undefined) | > 100 | > 100 | > 100 | > 100 | > 100 | > 100 | > 100 | > 100 | > 100 | > 100 | > 100 | > 100 | > 100 | > 100 | > 100 | > 100 |
| CCOC(=O)N1CCN(Cc2cc(=O)n3cc(C)ccc3n2)CC1 | > 100 | > 100 | > 100 | > 100 | > 100 | > 100 | > 100 | > 100 | > 100 | > 100 | > 100 | > 100 | > 100 | > 100 | > 100 | > 100 |
| CCOC(=O)C1(Cc2ccccc2)Cc2cc3c(cc2C1)CCC3 | > 100 | > 100 | > 100 | 95.3 | 52.8 | 90.9 | 58.6 | > 100 | 51.7 | > 100 | > 100 | > 100 | > 100 | > 100 | 34.3 | > 100 |
| O=C(NCCN1C(=O)CN=C(c2ccc(Cl)cc2)c2cc(Cl)ccc21)OCc1ccccc1 | 24.7 | 29.9 | 38.2 | 32.4 | 32.7 | > 100 | > 100 | 32.1 | 53.9 | 37.3 | 31.6 | 40.7 | 24.8 | 32.3 | 36 | 28.7 |
| CSC(SC)=C1C(=O)NN=C1C | > 100 | > 100 | > 100 | > 100 | > 100 | > 100 | > 100 | > 100 | > 100 | > 100 | > 100 | > 100 | > 100 | > 100 | > 100 | > 100 |
| Cc1cn(CC2=NCCN2)c(=O)[nH]c1=O | > 100 | > 100 | > 100 | > 100 | > 100 | > 100 | > 100 | > 100 | > 100 | > 100 | > 100 | > 100 | > 100 | > 100 | > 100 | > 100 |
| O=C(c1ccc(Cl)cc1Cl)N(Cc1cccnc1)C(=S)N(Cc1cccnc1)C(=O)c1ccc(Cl)cc1Cl | 12.9 | 20.4 | 7.12 | 14.8 | 8.97 | 37.1 | > 100 | 23.5 | > 100 | 8.7 | 36.9 | 66.4 | 6.19 | 6.53 | 13.7 | 18.3 |
| Cc1cc(C)c(S(=O)(=O)N[C@@H](/C=C(\Br)CO)C(C)C)c(C)c1 | > 100 | > 100 | > 100 | 85.2 | 53.7 | > 100 | 75.3 | > 100 | 54.5 | > 100 | 61.6 | 54.5 | > 100 | > 100 | 33.7 | 32 |
| CSc1c(C(=O)Nc2ccc(C)cc2)c(N)nn1-c1ccccc1 | > 100 | > 100 | > 100 | > 100 | > 100 | > 100 | > 100 | > 100 | > 100 | > 100 | 75.7 | > 100 | > 100 | > 100 | > 100 | > 100 |
| N#C/C(=C1\N=C(c2ccccc2O)Oc2ccccc21)c1ccc([N+](=O)[O-])cc1 | > 100 | > 100 | > 100 | > 100 | > 100 | > 100 | > 100 | > 100 | > 100 | > 100 | > 100 | > 100 | > 100 | > 100 | > 100 | > 100 |
| Cc1ccc(/C=C2\N=C(N3CCCCC3)NC2=O)cc1 | > 100 | > 100 | > 100 | > 100 | > 100 | > 100 | > 100 | > 100 | > 100 | > 100 | > 100 | > 100 | > 100 | > 100 | > 100 | > 100 |
| O=C(O)c1cccc(S(=O)(=O)NN2C(=O)CSC2c2ccccc2)c1 (centres undefined) | > 100 | > 100 | > 100 | > 100 | > 100 | > 100 | > 100 | > 100 | > 100 | > 100 | > 100 | > 100 | > 100 | > 100 | > 100 | > 100 |
| CC(CC(=O)CO[C@H]1[C@H](O)[C@@H](O)[C@@H](O)[C@@H]2NC(=O)c3c(cc4c(c3O)OCO4)[C@H]21)OC1OC(CO)C(O)C(O)C1O (some centres undefined) | 8.11 | 3.81 | 2.29 | 3.76 | 0.633 | 3.87 | 3.54 | 2.6 | 2.07 | 1.55 | 3.16 | 3.76 | 1.67 | 1.89 | 0.859 | 2.14 |
| CN(C)CCOc1ccc(I)cc1Cc1ccccc1 | 20.4 | 27.4 | 28.6 | 28.6 | 9.62 | 33 | 20.2 | 24.7 | 23.9 | 25.5 | 29.9 | 29.3 | 22.4 | 12.3 | 30.7 | 25 |
| CC(C)(C)c1cc(C(=O)/C=C/c2ccc(O)c(O)c2O)cc(C(C)(C)C)c1O | 13.9 | > 51.4 | 27.8 | 28.2 | 11.7 | 53.7 | 28.9 | 18.9 | 4.4 | 18.3 | > 67.5 | > 45.1 | 12.7 | 36 | 19.2 | 13.8 |
| CC(=O)Oc1ccc(N2C(=O)C3c4[nH]c5ccccc5c4C4CCC(C(C)(C)C)CC4C3C2=O)cc1 (centres undefined) | 17.7 | 11 | 13.5 | 14.9 | 5.14 | 24 | 94.2 | 12.2 | > 100 | 10.7 | 19.4 | 8.82 | 4.93 | 4.63 | 17.8 | 4.17 |
| COc1cc(N(CCC#N)CCC#N)ccc1/C(N=Nc1ccc(C)cc1)=N/NC(=O)c1cc(Br)ccc1O | 60.3 | 91.4 | 96.5 | 62.6 | 50.1 | > 100 | 37.3 | > 100 | > 100 | 82 | > 100 | > 100 | 41.2 | 55.2 | 96.5 | 54.9 |
| CC(=O)Nc1ccc(Nc2cc(=O)n(C)c(=O)[nH]2)cc1 | > 100 | > 100 | > 100 | > 100 | > 100 | > 100 | > 100 | > 100 | > 100 | > 100 | > 100 | > 100 | > 100 | > 100 | > 100 | > 100 |
| Oc1c(C2=NNC(c3cccs3)C2)ccc2ccccc12 (centres undefined) | > 100 | 38.3 | 99.4 | > 100 | 34.2 | > 100 | 30.9 | > 100 | 77.9 | > 100 | > 100 | 74.5 | 30.6 | 91.2 | > 100 | 38.1 |
| CC(NC1=CC(=O)c2ncccc2C1=O)C(O)c1ccccc1 (centres undefined) | 17.2 | 53.4 | 25.9 | 7.25 | 23.2 | 71.7 | 41.8 | 43.7 | 53.9 | > 100 | 4.97 | 25.1 | 15.2 | 6.94 | 17.9 | 24.9 |
| Cc1c2c(c(C)n1-c1ccccc1)C(=O)N(CCSC(=N)N)C2=O | > 100 | > 100 | > 100 | > 100 | > 100 | > 100 | > 100 | > 100 | > 100 | > 100 | > 100 | > 100 | > 100 | > 100 | > 100 | > 100 |
| COc1ccc2c(c1)c1nn(CCN(C)C)c3ccc4c(=O)n(CCN(C)C)c(=O)n2c4c13 | 0.329 | 0.211 | 0.217 | 2.6 | 0.0546 | 0.304 | 0.197 | 0.432 | < 0.0192 | 0.696 | 0.555 | 0.244 | 0.294 | 0.26 | 0.192 | 0.517 |
| Cc1cccc(/C=N/NC(=S)NCc2ccccn2)n1 | 60 | > 93 | > 78.6 | > 100 | > 100 | 97.7 | > 100 | 67.5 | > 100 | > 100 | > 100 | > 100 | > 100 | > 100 | > 100 | > 100 |
| COC(=O)C1Cc2ccc(C)cc2C1=O (centres undefined) | > 100 | > 100 | > 100 | > 100 | > 100 | > 100 | > 100 | > 100 | > 100 | > 100 | > 100 | > 100 | > 100 | > 100 | > 100 | > 100 |
